Assay results published in paper PMC10449633 (Nature Chemical Biology, 2023).
Values joined by “and” are separate entries in the source; they are usually repeats but may differ in a detail not shown here. Equal entries are not always repeated. “Also recorded” adds a separate entry of the source. Where two headings read alike, the source gives them in different places. Numbered stars: 1 amine (or outer) side, 2 acyl side, 3 side chain; on linkers, the order of the positions; unused ones are H or OH. Square brackets hold non-standard residues; d marks the D form. Peptide text beside a SMILES is read from it. ξ: configuration not given here. X1 = CN(C(Cc1cn(Cc2ccc(Br)cc2)c2ccccc12)C(=O)[*:2])[*:1]; ξAla(CF3) = NC(CC(F)(F)F)C(=O)O; X2 = N#CCCC(O[*:1])C(=O)[*:2]; NMeL = CN[CH](CC(C)C)C(=O)O; NMeA = CN[CH](C)C(=O)O

Experiments:
[1] = system: human peripheral blood mononuclear cells (PBMCs); assay: Cytokine secretion assay, stimulated human PBMCs (MSD U-PLEX); type: cell-based; details: for IC50: 24 h, tested 0.025–25,000 nM
mouse splenocytes = assay: Cytokine secretion assay, stimulated mouse splenocytes (MSD U-PLEX); type: cell-based; details: 24 h, tested 0.025–25,000 nM
[2] = system: collagen antibody-induced arthritis in BALB/c mice; assay: Anticollagen antibody-induced arthritis model, clinical scores; type: in vivo, mouse
Sec61α = assay: Photo-cotransin (CT7) photo-affinity labeling competition, LMNG-solubilized ER microsomes; type: binding, sheep; details: excess competitor, LMNG-solubilized ER membranes
Description: To understand the molecular basis of Sec61 inhibition by KZR-8445, we pursued structural investigations using single-particle cryo-EM. Our initial attempts to isolate cotransin-bound ribosome–Sec61 complexes with the commonly used detergent digitonin were not successful. Several other detergents were screened for retention of native-like cotransin binding by subjecting solubilized Sec61 to a cotransin photo-affinity labeling assay[15] (Extended Data Fig. 2a). This screen identified lauryl maltoside neopentyl glycol (LMNG), a lipid-mimetic detergent that permits maximal photo-cotransin binding, as indicated by specific crosslinking to the Sec61α subunit in LMNG-solubilized ER membranes.
Sheep pancreatic ER microsomes (SRM) were isolated according to the method described earlier[48],[49]. […] The labeled proteins were analyzed by SDS–PAGE and in-gel fluorescence followed by Western blotting using anti-Sec61α and anti-RPL18 antibodies. […]
Extended Data Fig. 2 Isolation and biochemical characterization of the inhibitor-bound ribosome-Sec61 (RNC) complexes. […] (c) Gel filtration profile of clarified detergent-solubilized sample fractions with measured absorbance at A260. […]

[3] = system: Sec61 R66I TNFa(FL) reporter cells; assay: CTG (CellTiter-Glo) viability of TNFa(FL) reporter cells expressing Sec61 R66I; type: cell-based; details: replicate columns
Description: Supplement 41589_2023_1326_MOESM7_ESM.xlsx, sheet "Panel B" | column: Sec61 R66I - CTG (TNFa(FL))

Vero E6 cells = details: Mock infected 48 h
Sec61α S82P = Sec61α S82P (Canis lupus familiaris, UniProt P38377, S82P); assay: Luciferase reporter assay in HEK293 cells expressing Sec61α S82P; set-up: remaining activity: dose or concentration left out as unconfirmed; details: HEK293, 24 h, read-out: luciferase reporter activity (% of no-drug control), S82P
Description: (§1) Data are mean values ± s.d. from n = 2 independent experiments.
(§2) HEK293T cells (0.3 × 10^6) were seeded per well of a six-well plate and incubated at 37 °C in 5% CO2 for 24 h to adhere. Each of the two wells was transfected with 1 µg of plasmid encoding a luciferase with the signal peptide of either VCAM1 or pPL using PEI in a 5:1 ratio, after which cells were returned to the incubator for a further 24 h. Transfected cells were then resuspended following trypsinization, cell count estimated using a TC20 Automated Cell Counter (BioRad) and diluted to seed a 96-well flat-bottom plate with 1.6 × 10^4 cells per well. […] Cells were then incubated for a further 24 h, after which the luciferase-containing media were transferred to a clean 96-well plate and stored at −20 °C. Luciferase activity of the media was estimated using a Gaussia-GLOW Juice Luciferase Assay kit from PJK Biotech GmbH as per the manufacturer’s instructions. Luminescence was measured using an EnSpire Multimode plate reader (PerkinElmer). Background luminescence from media placed in a well with neither cells nor drug was subtracted from all values, and measurements were calculated as a percentage of luminescence intensity of a well expressing the appropriate luciferase construct in the absence of any drug. Curves were fitted, and IC50 values were calculated using GraphPad Prism 8.
HEK293 Flp-In T-REx cells (Thermo Fisher Scientific, R78007) were cultured in Dulbecco’s modified Eagle’s medium (Gibco) supplemented with 10% FBS (Gibco) at 37 °C in a humidified 5% CO2 atmosphere. Approximately 0.3 µg of pOG44 and 1 µg of targeting construct plasmids were mixed in 250 µl of OptiMEM (Thermo Fisher Scientific, 51985-026). A total of 3 µl (3 µg) Lipofectamine3000 transfection reagent was then added to the DNA mix and incubated at room temperature for 20 min, and the whole mixture was added to the cells. Cells were exposed to 100 µg ml^−^1 hygromycin B (Invitrogen) and 10 µg ml^−^1 blasticidin for 3–4 weeks until the appearance of resistant colonies. Colonies were expanded into T75 flasks and induced with doxycycline (Sigma-Aldrich, D9891) at a concentration of 1–5 µg ml^−^1 for 48 h. Cells were collected, and total RNA was extracted followed by cDNA amplification and sequencing of Sec61 with gene-specific PCR primers to confirm. Cells were then used for the luciferase reporter assays as above.
(§3) Data are mean values ± SD and are representative of n = 2 independent experiments.

Sec61α V303A = Sec61α V303A (Canis lupus familiaris, UniProt P38377, V303A); assay: Luciferase reporter assay in HEK293 cells expressing Sec61α V303A; set-up: remaining activity: dose or concentration left out as unconfirmed; details: HEK293, 24 h, read-out: luciferase reporter activity (% of no-drug control), V303A
Description: as §1, §2
WT canine Sec61 was cloned into pcDNA5/FRT/TO (Thermo Fisher Scientific), and point mutations were generated using PCR. All mutants were sequence verified. HEK293 Flp-In T-REx cells (Thermo Fisher Scientific, R78007) were cultured in Dulbecco’s modified Eagle’s medium (Gibco) supplemented with 10% FBS (Gibco) at 37 °C in a humidified 5% CO2 atmosphere. Approximately 0.3 µg of pOG44 and 1 µg of targeting construct plasmids were mixed in 250 µl of OptiMEM (Thermo Fisher Scientific, 51985-026). A total of 3 µl (3 µg) Lipofectamine3000 transfection reagent was then added to the DNA mix and incubated at room temperature for 20 min, and the whole mixture was added to the cells. Cells were exposed to 100 µg ml^−^1 hygromycin B (Invitrogen) and 10 µg ml^−^1 blasticidin for 3–4 weeks until the appearance of resistant colonies. Colonies were expanded into T75 flasks and induced with doxycycline (Sigma-Aldrich, D9891) at a concentration of 1–5 µg ml^−^1 for 48 h. Cells were collected, and total RNA was extracted followed by cDNA amplification and sequencing of Sec61 with gene-specific PCR primers to confirm. Cells were then used for the luciferase reporter assays as above.
as §3

[4] = anti-CD3/CD28-stimulation, read-out: IC50, GM-CSF secretion
[5] = anti-CD3/CD28-stimulation, read-out: IC50, TNFα secretion

Chain of Sec61α V303A (P60059 whole entry): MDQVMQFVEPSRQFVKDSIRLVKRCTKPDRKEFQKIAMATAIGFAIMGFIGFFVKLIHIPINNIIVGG
Chain of Sec61α V303A (P38377 whole entry V303A): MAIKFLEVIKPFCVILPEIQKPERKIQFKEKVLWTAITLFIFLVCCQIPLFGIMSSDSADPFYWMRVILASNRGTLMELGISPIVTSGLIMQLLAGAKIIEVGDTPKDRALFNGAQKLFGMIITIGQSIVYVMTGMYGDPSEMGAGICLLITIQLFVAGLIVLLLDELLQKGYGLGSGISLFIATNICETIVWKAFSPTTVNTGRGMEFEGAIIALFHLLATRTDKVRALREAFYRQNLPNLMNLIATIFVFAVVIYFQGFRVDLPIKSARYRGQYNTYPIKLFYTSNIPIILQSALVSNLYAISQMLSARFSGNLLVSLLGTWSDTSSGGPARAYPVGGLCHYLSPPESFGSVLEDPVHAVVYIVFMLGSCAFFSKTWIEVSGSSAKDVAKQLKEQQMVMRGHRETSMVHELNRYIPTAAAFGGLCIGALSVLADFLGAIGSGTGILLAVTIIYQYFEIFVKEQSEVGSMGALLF
Chain of Sec61α V303A (P60468 whole entry, further chain): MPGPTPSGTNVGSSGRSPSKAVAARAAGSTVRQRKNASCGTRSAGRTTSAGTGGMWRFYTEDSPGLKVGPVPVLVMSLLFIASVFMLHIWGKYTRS
Chain of Sec61α S82P (P60468 whole entry): as the sequence (P60468 whole entry, further chain) above
Chain of Sec61α S82P (P38377 whole entry S82P): as the sequence (P38377 whole entry V303A) above, with S82P, A303V counted along it
Chain of Sec61α S82P (P60059 whole entry, further chain): as the sequence (P60059 whole entry) above

For `CC(C)CC1NC(=O)C(Cc2cn(Cc3ccc(Br)cc3)c3ccccc23)N(C)C(=O)C(CC(F)(F)F)NC(=O)C(CC(C)C)N(C)C(=O)C(CC(F)(F)F)NC(=O)C(CCC#N)OC(=O)C(C)N(C)C1=O` (stereo not drawn) [KZR-8445] (cyclo([X1]L[NMeA][X2][ξAla(CF3)][NMeL][ξAla(CF3)]); configuration not given here), the IC50 ([1]; Homo sapiens, PBMC, LPS-stimulation, read-out: IC50, IL-1β secretion) was greater than 25000 nM, the IC50 ([1]; Homo sapiens, PBMC, LPS-stimulation, read-out: IC50, IL-23 secretion) was 167 nM and the IC50 ([1]; Homo sapiens, PBMC, anti-CD3/CD28-stimulation, read-out: IC50, GM-CSF secretion) was 189 nM. For the same compound, the IC50 ([1]; Homo sapiens, PBMC, anti-CD3/CD28-stimulation, read-out: IC50, IL-2 secretion) was 42.2 nM, the IC50 ([1]; Homo sapiens, PBMC, anti-CD3/CD28-stimulation, read-out: IC50, TNFα secretion) was 42.6 nM and the IC50 ([1]; LPS-stimulation, read-out: IC50, IL-23 secretion) was 233 nM and 188 nM and 190 nM. The “IC50s, secretion of six of seven tested cytokines” value ([1]; activated human PBMCs and mouse splenocytes) was “submicromolar”, the IC50 [1, 4] was 185 nM and 222 nM and 212 nM and the IC50 ([1]; anti-CD3/CD28-stimulation, read-out: IC50, IL-2 secretion) was 38.7 nM and 39 nM and 26.6 nM. The IC50 [1, 5] was 31.8 nM and 37.5 nM and 26.2 nM, the “secretion of IL-1β” value ([1]; not Sec61-dependent) was “unaffected” and the IC50 (mouse splenocytes; LPS-stimulation, read-out: IC50, IL-6 secretion) was 150 nM. The IC50 (mouse splenocytes; Mus musculus, Splenocyte, LPS-stimulation, read-out: IC50, IL-1β secretion) was greater than 25000 nM, the IC50 (mouse splenocytes; Mus musculus, Splenocyte, LPS-stimulation, read-out: IC50, IL-6 secretion) was 114 nM and the IC50 (mouse splenocytes; Mus musculus, Splenocyte, LPS-stimulation, read-out: IC50, IL-23 secretion) was 206 nM. The IC50 (mouse splenocytes; Mus musculus, Splenocyte, anti-CD3/CD28-stimulation, read-out: IC50, GM-CSF secretion) was 31.2 nM, the IC50 (mouse splenocytes; Mus musculus, Splenocyte, anti-CD3/CD28-stimulation, read-out: IC50, IFNγ secretion) was 59.6 nM and the IC50 (mouse splenocytes; Mus musculus, Splenocyte, anti-CD3/CD28-stimulation, read-out: IC50, TNFα secretion) was 103 nM. For the same compound, the IC50 (mouse splenocytes; [4]) was 39.5 nM, the IC50 (mouse splenocytes; anti-CD3/CD28-stimulation, read-out: IC50, IFNγ secretion) was 32 nM and the IC50 (mouse splenocytes; [5]) was 84.7 nM. For the same compound, the “P versus vehicle (one-way ANOVA), disease progression” value ([2]; 10 mg kg−1 thrice weekly) was 0.01, the “P versus vehicle (one-way ANOVA), disease progression” value ([2]; 20 mg kg−1 thrice weekly) was less than 0.0001 and the “P versus vehicle, disease progression” value ([2]; 20 mg kg−1 weekly) was 0.007. For the same compound, the “efficacy of weekly administration” value ([2]; 20 mg kg−1 weekly) was “effective”, the “arthritis disease progression / clinical symptoms” value ([2]; IV thrice weekly after onset of disease) was “blocked disease progression in a dose-dependent manner; also recorded: ameliorated clinical arthritis symptoms” and the “anti-inflammatory effect compared with dexamethasone” value ([2]; highest dose) was “stronger anti-inflammatory effect than the corticosteroid dexamethasone”. For the same compound, the “competition of photo-cotransin crosslinking to Sec61α” value (Sec61α) was “efficiently competed”, the “Sec61 R66I - CTG (TNFa(FL))” value ([3]; 0.32 nM) was 108 and 113 and 120 and the “Sec61 R66I - CTG (TNFa(FL))” value ([3]; 1.6 nM) was 101 and 108 and 112. The “Sec61 R66I - CTG (TNFa(FL))” value ([3]; 8 nM) was 103 and 106 and 110, the “Sec61 R66I - CTG (TNFa(FL))” value ([3]; 40 nM) was 99 and 111 and 119 and the “Sec61 R66I - CTG (TNFa(FL))” value ([3]; 200 nM) was 106 and 110 and 120. The “Sec61 R66I - CTG (TNFa(FL))” value ([3]; 1000 nM) was 112 (2×) and 113, the “Sec61 R66I - CTG (TNFa(FL))” value ([3]; 5000 nM) was 102 and 107 and 104 and the “Sec61 R66I - CTG (TNFa(FL))” value ([3]; 25000 nM) was 101 and 94 and 102. The cell viability (Vero E6 cells; 0.01 uM) was 91.0268 and 102.167 and 114.581, the cell viability (Vero E6 cells; 0.04 uM) was 90.9801 and 99.0668 and 98.0954 and the cell viability (Vero E6 cells; 0.12 uM) was 93.1234 and 96.6644 and 96.0334. For the same compound, the cell viability (Vero E6 cells; 0.37 uM) was 79.1404 and 83.8559 and 91.7442, the cell viability (Vero E6 cells; 1.11 uM) was 83.2343 and 88.2826 and 88.422 and the cell viability (Vero E6 cells; 3.33 uM) was 85.0888 and 89.2631 and 88.8876. The cell viability (Vero E6 cells; 10 uM) was 76.0738 and 86.0259 and 84.7152, the remaining activity at 0.00018303 µM (Sec61α S82P; Drug nM (log10) 0.18303) was 99% and the remaining activity at 0.000660151 µM (Sec61α S82P; Drug nM (log10) 0.660151) was 80.3%. For the same compound, the remaining activity at 0.00113727 µM (Sec61α S82P; Drug nM (log10) 1.13727) was 73.5%, the remaining activity (Sec61α S82P; Drug nM (log10) 1.61439) was 47.5% and the remaining activity (Sec61α S82P; Drug nM (log10) 2.09151) was 22.4%. It also gave a remaining activity (Sec61α S82P; Drug nM (log10) 2.56864) of 10.1%, a remaining activity (Sec61α S82P; Drug nM (log10) 3.04576) of 4.21% and a remaining activity (Sec61α S82P; Drug nM (log10) 3.52288) of 2.82%. It also gave a remaining activity at 0.004 µM (Sec61α S82P; Drug nM (log10) 4) of 3.25%, a remaining activity at 0.00050805 µM (Sec61α S82P; Drug nM (log10) -0.29409) of 102% and a remaining activity at 0.00018303 µM (Sec61α V303A; Drug nM (log10) 0.18303) of 95.1%. It also gave a remaining activity at 0.000660151 µM (Sec61α V303A; Drug nM (log10) 0.660151) of 82.2%, a remaining activity at 0.00113727 µM (Sec61α V303A; Drug nM (log10) 1.13727) of 64.5% and a remaining activity (Sec61α V303A; Drug nM (log10) 1.61439) of 42%. For the same compound, the remaining activity (Sec61α V303A; Drug nM (log10) 2.09151) was 21.1%, the remaining activity (Sec61α V303A; Drug nM (log10) 2.56864) was 8.79% and the remaining activity (Sec61α V303A; Drug nM (log10) 3.04576) was 3.93%. The remaining activity (Sec61α V303A; Drug nM (log10) 3.52288) was 2.95%, the remaining activity at 0.004 µM (Sec61α V303A; Drug nM (log10) 4) was 3.21% and the remaining activity at 0.00050805 µM (Sec61α V303A; Drug nM (log10) -0.29409) was 96.2%.
